Data as given in ChEMBL document CHEMBL4823279, “Epigenetic Manipulation to Trigger Production of Guaiane-Type Sesquiterpenes from a Marine-Derived Spiromastix sp. Fungus with Antineuroinflammatory Effects” (J Nat Prod, 2021).
Calls of active or inactive are those of the source. The calls are words filed in the database; no cut-off is given here.

Key:
[1] = Cytotoxicity against mouse BV-2 cells assessed as reduction in cell viability measured after 24 hrs by MTT assay; assay type: cell-based
[2] = test system: BV-2; experiment: Anti-neuroinflammatory activity in mouse BV-2 cells assessed as inhibition of LPS-induced NO production measured after 24 hrs by Griess reagent based assay; assay type: functional, cell-based; conditions: BV-2, 24 h
[3] = test system: BV-2; experiment: Anti-neuroinflammatory activity against LPS stimulated mouse BV-2 cells assessed as reduction in iNOS protein expression measured after 24 hrs in presence of LPS by western blot analysis; assay type: functional, cell-based; conditions: dose 1-10 µM
[4] = test system: BV-2; experiment: Anti-neuroinflammatory activity against LPS stimulated mouse BV-2 cells assessed as reduction in COX-2 protein expression at 1 to 10 uM measured after 24 hrs in presence of LPS by western blot analysis; assay type: functional, cell-based; conditions: dose 1-10 µM
[5] = test system: BV-2; experiment: Inhibition of TLR4 production in LPS stimulated mouse BV-2 cells at 1 to 10 uM preincubated with LPS for 1 hr followed by incubation with compound for 16 hrs by western blot analysis; assay type: functional, cell-based; conditions: dose 1-10 µM
[6] = target: c-Jun N-terminal kinase (Mus musculus) (UniProt Q91Y86+Q9WTU6+Q61831); experiment: Inhibition of JNK phosphorylation in LPS stimulated mouse BV-2 cells at 1 to 10 uM preincubated with LPS for 1 hr followed by incubation with compound for 16 hrs by western blot analysis; assay type: cell-based; conditions: dose 1-10 µM
[7] = test system: BV-2; experiment: Inhibition of ERK phosphorylation in LPS stimulated mouse BV-2 cells at 1 to 10 uM preincubated with LPS for 1 hr followed by incubation with compound for 16 hrs by western blot analysis; assay type: cell-based; conditions: dose 1-10 µM
[8] = target: MAP kinase p38 (Mus musculus) (UniProt P47811+O08911+Q9WUI1+Q9Z1B7); experiment: Inhibition of p38 phosphorylation in LPS stimulated mouse BV-2 cells at 1 to 10 uM preincubated with LPS for 1 hr followed by incubation with compound for 16 hrs by western blot analysis; assay type: cell-based; conditions: dose 1-10 µM
[9] = target: Transcription factor p65 (Mus musculus) (UniProt Q04207); experiment: Inhibition of NF-kappaB p65 nuclear translocation in LPS-stimulated mouse BV-2 cells at 10 uM incubated with compound prior to LPS stimulation by DAPI staining based immunofluorescence assay; assay type: cell-based
[10] = test system: BV-2; experiment: Anti-neuroinflammatory activity in mouse BV-2 cells assessed as reduction in LPS-stimulated IL-1 beta production at 1 to 10 uM preincubated for 1 hr followed by LPS treatment and measured after 24 hrs by ELISA; assay type: functional, cell-based; conditions: dose 1-10 µM, time 25.0 hrs
[11] = test system: BV-2; experiment: Anti-neuroinflammatory activity in mouse BV-2 cells assessed as reduction in LPS-stimulated IL-6 production at 1 to 10 uM preincubated for 1 hr followed by LPS treatment and measured after 24 hrs by ELISA; assay type: functional, cell-based; conditions: dose 1-10 µM, time 25.0 hrs
[12] = test system: BV-2; experiment: Anti-neuroinflammatory activity in mouse BV-2 cells assessed as reduction in LPS-stimulated TNFalpha production at 1 to 10 uM preincubated for 1 hr followed by LPS treatment and measured after 24 hrs by ELISA; assay type: functional, cell-based; conditions: dose 1-10 µM, time 25.0 hrs
[13] = test system: BV-2; experiment: Anti-neuroinflammatory activity in mouse BV-2 cells assessed as reduction in LPS-stimulated iNOS mRNA expression at 1 to 10 uM by qRT-PCR analysis; assay type: functional, cell-based; conditions: dose 1-10 µM
[14] = test system: BV-2; experiment: Anti-neuroinflammatory activity in mouse BV-2 cells assessed as reduction in LPS-stimulated COX-2 mRNA expression at 1 to 10 uM by qRT-PCR analysis; assay type: functional, cell-based; conditions: dose 1-10 µM
[15] = test system: BV-2; experiment: Anti-neuroinflammatory activity in mouse BV-2 cells assessed as reduction in LPS-stimulated IL-1beta mRNA expression by qRT-PCR analysis; assay type: functional, cell-based; conditions: dose 1-10 µM
[16] = test system: BV-2; experiment: Anti-neuroinflammatory activity in mouse BV-2 cells assessed as reduction in LPS-stimulated IL-6 mRNA expression by qRT-PCR analysis; assay type: functional, cell-based; conditions: dose 1-10 µM
[17] = test system: BV-2; experiment: Anti-neuroinflammatory activity in mouse BV-2 cells assessed as reduction in LPS-stimulated TNF-alpha mRNA expression by qRT-PCR analysis; assay type: functional, cell-based; conditions: dose 1-10 µM

Sequence of Transcription factor p65 (Mus musculus) (Q04207 whole entry): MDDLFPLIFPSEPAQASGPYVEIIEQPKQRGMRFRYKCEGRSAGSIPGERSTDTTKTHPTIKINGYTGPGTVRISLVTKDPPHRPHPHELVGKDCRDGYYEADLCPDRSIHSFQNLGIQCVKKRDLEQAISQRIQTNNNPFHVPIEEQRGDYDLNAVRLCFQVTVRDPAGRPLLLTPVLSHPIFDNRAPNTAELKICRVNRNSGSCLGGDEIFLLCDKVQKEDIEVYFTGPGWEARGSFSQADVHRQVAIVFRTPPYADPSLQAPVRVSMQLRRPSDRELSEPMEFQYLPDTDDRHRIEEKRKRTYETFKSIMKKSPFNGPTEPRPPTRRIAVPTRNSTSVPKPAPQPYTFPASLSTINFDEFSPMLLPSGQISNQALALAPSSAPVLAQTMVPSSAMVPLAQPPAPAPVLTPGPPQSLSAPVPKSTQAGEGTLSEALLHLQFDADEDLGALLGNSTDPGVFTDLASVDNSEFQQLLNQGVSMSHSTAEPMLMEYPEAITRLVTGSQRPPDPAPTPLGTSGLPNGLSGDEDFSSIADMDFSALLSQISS
Sequence of c-Jun N-terminal kinase (Mus musculus) (Q61831 whole entry, looked up): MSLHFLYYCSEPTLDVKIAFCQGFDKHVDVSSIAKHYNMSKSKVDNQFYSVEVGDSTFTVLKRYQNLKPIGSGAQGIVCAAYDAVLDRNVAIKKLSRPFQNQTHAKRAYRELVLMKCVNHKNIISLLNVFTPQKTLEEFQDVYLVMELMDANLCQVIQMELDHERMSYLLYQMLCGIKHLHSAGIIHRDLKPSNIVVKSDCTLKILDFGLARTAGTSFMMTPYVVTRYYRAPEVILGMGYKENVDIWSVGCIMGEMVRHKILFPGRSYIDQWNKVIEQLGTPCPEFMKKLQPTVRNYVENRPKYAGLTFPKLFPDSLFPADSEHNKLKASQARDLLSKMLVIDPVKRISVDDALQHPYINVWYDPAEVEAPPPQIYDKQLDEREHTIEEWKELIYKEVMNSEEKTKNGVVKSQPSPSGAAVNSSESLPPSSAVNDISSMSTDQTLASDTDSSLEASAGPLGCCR
Sequence of c-Jun N-terminal kinase (Mus musculus) (Q91Y86 whole entry, looked up): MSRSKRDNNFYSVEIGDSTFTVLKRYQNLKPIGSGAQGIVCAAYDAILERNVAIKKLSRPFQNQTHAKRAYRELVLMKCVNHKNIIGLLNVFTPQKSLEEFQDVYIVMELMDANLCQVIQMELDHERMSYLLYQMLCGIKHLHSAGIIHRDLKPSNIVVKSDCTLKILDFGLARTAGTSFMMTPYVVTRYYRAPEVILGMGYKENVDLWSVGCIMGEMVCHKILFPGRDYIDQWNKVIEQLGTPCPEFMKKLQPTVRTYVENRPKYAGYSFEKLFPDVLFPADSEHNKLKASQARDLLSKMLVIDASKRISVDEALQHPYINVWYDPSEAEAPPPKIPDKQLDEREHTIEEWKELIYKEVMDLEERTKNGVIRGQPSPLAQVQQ
Sequence of c-Jun N-terminal kinase (Mus musculus) (Q9WTU6 whole entry, looked up): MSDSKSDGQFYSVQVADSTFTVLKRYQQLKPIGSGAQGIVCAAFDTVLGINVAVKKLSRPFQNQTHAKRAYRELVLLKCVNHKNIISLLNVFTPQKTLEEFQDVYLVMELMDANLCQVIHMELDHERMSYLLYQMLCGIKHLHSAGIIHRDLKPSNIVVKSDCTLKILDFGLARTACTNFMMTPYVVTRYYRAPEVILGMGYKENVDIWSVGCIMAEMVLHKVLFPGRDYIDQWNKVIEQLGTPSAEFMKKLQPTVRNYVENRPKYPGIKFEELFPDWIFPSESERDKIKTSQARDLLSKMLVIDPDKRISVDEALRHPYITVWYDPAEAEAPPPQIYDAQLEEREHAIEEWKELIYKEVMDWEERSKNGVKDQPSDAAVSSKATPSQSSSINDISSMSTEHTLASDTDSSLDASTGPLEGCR

SMILES | IC50 [2] | CC50 at 24 h [1] | also measured
Cc1c2c(cc(C(C)(C)O)cc1=O)[C@@H](C)C[C@@H]2O | > 30 µM | 39 µM | 
Cc1c2c(cc(C(C)C)cc1=O)[C@@H](C)CC2 | > 30 µM | 76 µM | 
CC(C)c1cc2c(c(CO)c(=O)c1)CC[C@@]2(C)O | > 30 µM | 61 µM | 
Cc1c2c(cc(C(C)C)cc1=O)[C@@](C)(O)CC2 | > 30 µM | 79 µM | 
Cc1c2c(cc(C(C)C)cc1=O)[C@](C)(O)C[C@@H]2O | > 30 µM | 49 µM | 

Continued, in another order:

IC50 [2] | SMILES | CC50 at 24 h [1] | also measured
10 µM | CNC(=N)NCCC[C@H](N)C(=O)O [TILARGININE] | > 200 µM | 
26 µM | Cc1c2c(cc(C(C)C)cc1=O)[C@@H](C)C[C@H]2O | 78 µM | 
> 30 µM | Cc1c2c(cc(C(C)C)cc1=O)[C@@H](C)C[C@@H]2O | 35 µM | 
9 µM | CC(C)c1cc2c(c(CO)c(=O)c1)[C@H](O)C[C@@H]2C | 74 µM | Activity [3]: Dose-Dependent Effect; Activity [4]: Active; inhibition [5]: inactive; inhibition [6]: inactive; inhibition [7]: inactive; inhibition [8]: inactive; inhibition [9]: Active; Activity [10]: Active; Activity [11]: Active; Activity [12]: Active; Activity [13]: Active; Activity [14]: Active; Activity [15]: Active; Activity [16]: Active; Activity [17]: Active
20 µM | CC(C)c1cc2c(c(CO)c(=O)c1)[C@@H](O)C[C@@H]2C | 49 µM | 
